The values below are quoted from earlier work in patent publication US7560455B2, “3-Amino-4-phenylbutanoic acid derivatives as dipeptidyl peptidase inhibitors for the treatment or prevention of diabetes” (Merck & Co., Inc., priority 2003, dated 2009).

In one series the test system is cardiac allograft. Conditions: rats; doubled from day 7 to day 14.
The test system of another series is hematopoiesis. Conditions: mouse, cyclophosphamide-induced neutropenia.
The target in another series is T1, DP-IV (Homo sapiens, UniProt P27487).
T1 construct: GRF is rapidly degraded in plasma to GRF[3-44]
T1 sequence (P27487 whole entry): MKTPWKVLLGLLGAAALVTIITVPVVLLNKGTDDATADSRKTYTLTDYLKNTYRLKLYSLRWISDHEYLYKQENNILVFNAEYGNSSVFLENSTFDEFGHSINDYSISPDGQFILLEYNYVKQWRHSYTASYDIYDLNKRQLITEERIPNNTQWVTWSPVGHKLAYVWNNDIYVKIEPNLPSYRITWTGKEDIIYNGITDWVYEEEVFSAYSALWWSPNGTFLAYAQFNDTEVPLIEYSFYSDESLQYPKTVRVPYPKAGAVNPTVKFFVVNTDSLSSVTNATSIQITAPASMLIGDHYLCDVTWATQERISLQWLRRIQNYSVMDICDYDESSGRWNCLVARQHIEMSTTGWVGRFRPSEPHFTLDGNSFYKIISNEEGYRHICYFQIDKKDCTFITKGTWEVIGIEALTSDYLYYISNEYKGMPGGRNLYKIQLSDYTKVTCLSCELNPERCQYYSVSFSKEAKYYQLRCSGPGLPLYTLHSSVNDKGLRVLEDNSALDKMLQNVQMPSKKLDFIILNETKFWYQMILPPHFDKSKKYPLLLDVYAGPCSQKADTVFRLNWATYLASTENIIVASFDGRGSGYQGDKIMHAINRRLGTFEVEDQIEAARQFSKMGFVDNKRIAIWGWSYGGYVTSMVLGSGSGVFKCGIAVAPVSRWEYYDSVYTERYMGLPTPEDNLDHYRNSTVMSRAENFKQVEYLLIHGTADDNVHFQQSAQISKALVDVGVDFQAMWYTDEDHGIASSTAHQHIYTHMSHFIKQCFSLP

On to `CC(C)N1CCC(c2ccccc2)(c2ccccc2)CC1` [Prodipine, Pro-Pro-diphenyl-phosphonate], for which the cardiac allograft survival in the series on cardiac allograft is 14 day. For the molecule `CC(C)[C@H](N)C(=O)N1CCC[C@H]1B(O)O` [Val-Boro-Pro], the effect on hematopoiesis entry in the series on hematopoiesis is on record as “stimulated hematopoiesis”. As for diprotin A, the “effect on degradation of GRF in plasma to GRF[3-44]” value at DP-IV is on record as “prevented”.
